Measured values taken from PMC2000878, “Module structure of interphotoreceptor retinoid-binding protein (IRBP) may provide bases for its complex role in the visual cycle – structure/function study of Xenopus IRBP” (BMC Biochemistry, 2007).
Where two headings read alike, the source gives them in different places.

Assays:
Xenopus IRBP Module 1 = Xenopus IRBP Module 1 (Xenopus laevis, UniProt Q7SZI7); assay: Competitive fluorescence titration of all-trans retinol with 11-cis retinaldehyde; assay type: binding; conditions: protein 0.99 μM
Method: Figure 9 Competitive inhibition by 11-cis retinaldehyde of all-trans retinol binding to the individual modules of Xenopus IRBP. Binding of all-trans retinol to the individual modules was measured by fluorescence enhancement in the presence of varying amounts of 11-cis retinal. Panels A through D correspond to modules 1 through 4 respectively. […] Three dimensional nonlinear regression was used to determine the number of binding sites, the dissociation constant of all-trans retinol, and the dissociation constant of 11-cis retinal for each of the individual modules. The concentrations of the proteins used in the titrations were as follows: module 1 (0.99 μM; panel A); module 2 (1.10 μM; panel B); module 3 (1.10 μM; panel C); module 4 (1.00 μM; panel D).
To describe the displacement of all-trans retinol by 11-cis retinaldehyde, Equation 1 was modified to take into account the competition between the two ligands. The apparent dissociation constants for all-trans retinol measured under these conditions is related to the dissociation constant of 11-cis retinaldehyde through the following expression.
Kapp=Kdall−trans[1+Rt11−cis/Kd11−cis] MathType@MTEF@5@5@+=feaafiart1ev1aaatCvAUfKttLearuWrP9MDH5MBPbIqV92AaeXatLxBI9gBaebbnrfifHhDYfgasaacH8akY=wiFfYdH8Gipec8Eeeu0xXdbba9frFj0=OqFfea0dXdd9vqai=hGuQ8kuc9pgc9s8qqaq=dirpe0xb9q8qiLsFr0=vr0=vr0dc8meaabaqaciaacaGaaeqabaqabeGadaaakeaacqWGlbWsdaWgaaWcbaGaemyyaeMaemiCaaNaemiCaahabeaakiabg2da9iabdUealnaaDaaaleaacqWGKbazaeaacqWGHbqycqWGSbaBcqWGSbaBcqGHsislcqWG0baDcqWGYbGCcqWGHbqycqWGUbGBcqWGZbWCaaGcdaWadaqaaiabigdaXiabgUcaRmaalaaabaGaemOuai1aa0baaSqaaiabdsha0bqaaiabigdaXiabigdaXiabgkHiTiabdogaJjabdMgaPjabdohaZbaaaOqaaiabdUealnaaDaaaleaacqWGKbazaeaacqaIXaqmcqaIXaqmcqGHsislcqWGJbWycqWGPbqAcqWGZbWCaaaaaaGccaGLBbGaayzxaaaaaa@58DE@
The origin of the above expression is discussed in reviews dealing with competition assays. Substitution of equation 2 into equation 1 yields the following expression.
Fenh=C1+C2[Rtall−trans−(Rtall−trans+NPt+Kdall−trans+Kdall−transRt11−cis/Kd11−cis)^2−4NPtRtall−trans] MathType@MTEF@5@5@+=feaafiart1ev1aaatCvAUfKttLearuWrP9MDH5MBPbIqV92AaeXatLxBI9gBaebbnrfifHhDYfgasaacH8akY=wiFfYdH8Gipec8Eeeu0xXdbba9frFj0=OqFfea0dXdd9vqai=hGuQ8kuc9pgc9s8qqaq=dirpe0xb9q8qiLsFr0=vr0=vr0dc8meaabaqaciaacaGaaeqabaqabeGadaaakeaacqWGgbGrdaWgaaWcbaGaemyzauMaemOBa4MaemiAaGgabeaakiabg2da9iabdoeadnaaBaaaleaacqaIXaqmaeqaaOGaey4kaSIaem4qam0aaSbaaSqaaiabikdaYaqabaGcdaWadaqaaiabdkfasnaaDaaaleaacqWG0baDaeaacqWGHbqycqWGSbaBcqWGSbaBcqGHsislcqWG0baDcqWGYbGCcqWGHbqycqWGUbGBcqWGZbWCaaGccqGHsisldaGcaaqaamaabmaabaGaemOuai1aa0baaSqaaiabdsha0bqaaiabdggaHjabdYgaSjabdYgaSjabgkHiTiabdsha0jabdkhaYjabdggaHjabd6gaUjabdohaZbaakiabgUcaRiabd6eaojabdcfaqnaaBaaaleaacqWG0baDaeqaaOGaey4kaSIaem4saS0aa0baaSqaaiabdsgaKbqaaiabdggaHjabdYgaSjabdYgaSjabgkHiTiabdsha0jabdkhaYjabdggaHjabd6gaUjabdohaZbaakiabgUcaRmaalaaabaGaem4saS0aa0baaSqaaiabdsgaKbqaaiabdggaHjabdYgaSjabdYgaSjabgkHiTiabdsha0jabdkhaYjabdggaHjabd6gaUjabdohaZbaakiabdkfasnaaDaaaleaacqWG0baDaeaacqaIXaqmcqaIXaqmcqGHsislcqWGJbWycqWGPbqAcqWGZbWCaaaakeaacqWGlbWsdaqhaaWcbaGaemizaqgabaGaeGymaeJaeGymaeJaeyOeI0Iaem4yamMaemyAaKMaem4CamhaaaaaaOGaayjkaiaawMcaamaaCaaaleqabaGaeGOmaidaaOGaeyOeI0IaeGinaqJaemOta4Kaemiuaa1aaSbaaSqaaiabdsha0bqabaGccqWGsbGudaqhaaWcbaGaemiDaqhabaGaemyyaeMaemiBaWMaemiBaWMaeyOeI0IaemiDaqNaemOCaiNaemyyaeMaemOBa4Maem4CamhaaaqabaaakiaawUfacaGLDbaaaaa@A768@

full-length Xenopus IRBP = target: T1, full-length Xenopus IRBP (Xenopus laevis, UniProt Q7SZI7); assay: Fluorometric titration (ligand fluorescence enhancement, protein quenching, energy transfer); assay type: binding
T1 construct: We expressed the full-length IRBP as well as its individual modules as thioredoxin-fusion proteins using pTrxFus and pThioHis vectors; made in house; host or cells: E. coli Top10 (pThioHis)
Excerpt: The binding parameters of retinoid-binding proteins including IRBP may be determined by fluorescence spectroscopy. The method utilizes changes in quantum yield occurring during ligand binding. Such changes are represented by enhancement of ligand fluorescence, quenching of intrinsic protein fluorescence, and transfer of energy from protein to bound ligand. Fluorescence enhancement occurs if the quantum yield of the ligand's fluorescence is higher in the hydrophobic environment of the ligand-binding domain compared to that outside of the domain.
[…] We previously derived an equation that is generally useful for describing such quantum yield changes that are consequent upon ligand binding. This equation has been previously applied to the analysis of binding by monitoring the enhancement of retinol fluorescence. In this case, […], the fluorescence enhancement (Fenh) depends on the total retinol concentration (Rt), the dissociation constant (Kd ^all-trans), the number of retinol-binding sites per protein molecule (N) and the total protein concentration (Pt).
Assuming that there is a single type of noninteracting site on the protein, (Fenh) is expected to be linearly related to the concentration of bound retinol molecules. Fenh is given by the relation
Fenh=C1+C2[Rtall−trans−(Rtall−trans+NPt+Kdall−trans)^2−4NPtRtall−trans] MathType@MTEF@5@5@+=feaafiart1ev1aaatCvAUfKttLearuWrP9MDH5MBPbIqV92AaeXatLxBI9gBaebbnrfifHhDYfgasaacH8akY=wiFfYdH8Gipec8Eeeu0xXdbba9frFj0=OqFfea0dXdd9vqai=hGuQ8kuc9pgc9s8qqaq=dirpe0xb9q8qiLsFr0=vr0=vr0dc8meaabaqaciaacaGaaeqabaqabeGadaaakeaacqWGgbGrdaWgaaWcbaGaemyzauMaemOBa4MaemiAaGgabeaakiabg2da9iabdoeadnaaBaaaleaacqaIXaqmaeqaaOGaey4kaSIaem4qam0aaSbaaSqaaiabikdaYaqabaGcdaWadaqaaiabdkfasnaaDaaaleaacqWG0baDaeaacqWGHbqycqWGSbaBcqWGSbaBcqGHsislcqWG0baDcqWGYbGCcqWGHbqycqWGUbGBcqWGZbWCaaGccqGHsisldaGcaaqaamaabmaabaGaemOuai1aa0baaSqaaiabdsha0bqaaiabdggaHjabdYgaSjabdYgaSjabgkHiTiabdsha0jabdkhaYjabdggaHjabd6gaUjabdohaZbaakiabgUcaRiabd6eaojabdcfaqnaaBaaaleaacqWG0baDaeqaaOGaey4kaSIaem4saS0aa0baaSqaaiabdsgaKbqaaiabdggaHjabdYgaSjabdYgaSjabgkHiTiabdsha0jabdkhaYjabdggaHjabd6gaUjabdohaZbaaaOGaayjkaiaawMcaamaaCaaaleqabaGaeGOmaidaaOGaeyOeI0IaeGinaqJaemOta4Kaemiuaa1aaSbaaSqaaiabdsha0bqabaGccqWGsbGudaqhaaWcbaGaemiDaqhabaGaemyyaeMaemiBaWMaemiBaWMaeyOeI0IaemiDaqNaemOCaiNaemyyaeMaemOBa4Maem4CamhaaaqabaaakiaawUfacaGLDbaaaaa@8490@
The equation was fit to the data by nonlinear least-squares analysis. […] For the quenching studies the inner filter effect was accounted for by graphical correction as previously described. Fluorescence measurements were made using an SLM 8000TM C photon counting spectrofluorometer corrected for wavelength dependence of source energy and detector response.

T1 sequence (Q7SZI7 23-1219): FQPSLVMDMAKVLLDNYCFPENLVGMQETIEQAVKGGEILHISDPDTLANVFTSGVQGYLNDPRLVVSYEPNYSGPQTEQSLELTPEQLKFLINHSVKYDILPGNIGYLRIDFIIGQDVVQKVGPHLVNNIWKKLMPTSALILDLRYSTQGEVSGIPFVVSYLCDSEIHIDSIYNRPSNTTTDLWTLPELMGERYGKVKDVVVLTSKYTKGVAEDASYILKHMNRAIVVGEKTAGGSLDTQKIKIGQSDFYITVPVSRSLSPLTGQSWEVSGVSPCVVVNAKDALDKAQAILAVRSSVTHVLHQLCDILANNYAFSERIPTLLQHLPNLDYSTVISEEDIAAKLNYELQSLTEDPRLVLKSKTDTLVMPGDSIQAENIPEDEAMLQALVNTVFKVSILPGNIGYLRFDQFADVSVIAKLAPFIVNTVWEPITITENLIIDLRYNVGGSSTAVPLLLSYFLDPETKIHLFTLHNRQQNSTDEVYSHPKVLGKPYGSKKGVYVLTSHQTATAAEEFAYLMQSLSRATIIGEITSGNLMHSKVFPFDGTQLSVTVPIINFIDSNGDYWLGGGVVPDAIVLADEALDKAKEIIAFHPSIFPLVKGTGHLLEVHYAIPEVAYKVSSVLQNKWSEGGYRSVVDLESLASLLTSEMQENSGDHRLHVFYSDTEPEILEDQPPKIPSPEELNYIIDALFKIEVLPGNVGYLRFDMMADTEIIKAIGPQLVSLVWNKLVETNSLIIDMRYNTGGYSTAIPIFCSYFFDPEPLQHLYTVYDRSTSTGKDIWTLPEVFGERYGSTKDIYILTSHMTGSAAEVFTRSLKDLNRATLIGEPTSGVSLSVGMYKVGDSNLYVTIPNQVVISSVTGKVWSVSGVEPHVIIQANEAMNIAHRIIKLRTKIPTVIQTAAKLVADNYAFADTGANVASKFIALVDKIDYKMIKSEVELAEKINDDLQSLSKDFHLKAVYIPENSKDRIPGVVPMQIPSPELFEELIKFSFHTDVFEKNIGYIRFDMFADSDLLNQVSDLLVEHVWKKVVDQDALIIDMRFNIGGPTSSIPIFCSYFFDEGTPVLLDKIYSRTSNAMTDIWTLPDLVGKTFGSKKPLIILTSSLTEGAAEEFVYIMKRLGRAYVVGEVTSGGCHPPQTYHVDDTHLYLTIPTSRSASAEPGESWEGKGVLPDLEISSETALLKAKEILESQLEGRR
Sequence of Xenopus IRBP Module 1 (Q7SZI7 23-318): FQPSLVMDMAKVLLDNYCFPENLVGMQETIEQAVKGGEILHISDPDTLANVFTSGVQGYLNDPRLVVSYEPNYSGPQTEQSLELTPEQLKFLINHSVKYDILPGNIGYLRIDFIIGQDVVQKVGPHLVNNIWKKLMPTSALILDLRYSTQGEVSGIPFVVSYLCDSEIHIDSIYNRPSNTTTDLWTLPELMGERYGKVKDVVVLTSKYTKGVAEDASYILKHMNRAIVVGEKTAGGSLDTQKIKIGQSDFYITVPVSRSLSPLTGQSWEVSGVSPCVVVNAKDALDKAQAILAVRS

Row | Compound | Kd (Xenopus IRBP Module 1; competition with all-trans retinol, read-out: Kd 11-cis retinal) [nM] | Binding sites (N) (Xenopus IRBP Module 1; competition, shared sites) | Binding sites (N), Quenching (full-length Xenopus IRBP; quenching of protein fluorescence by 11-cis retinaldehyde, ex 280 nm, em 340 nm) | Kd (full-length Xenopus IRBP; quenching of protein fluorescence by 11-cis retinaldehyde, ex 280 nm, em 340 nm, read-out: Kd 11-cis, Quenching) [nM] | Kd (Xenopus IRBP Module 1; competition, in presence of 11-cis retinal, read-out: Kd All-trans retinol) [nM] | Binding sites (N), Enhancement (full-length Xenopus IRBP; all-trans retinol fluorescence enhancement, ex 330 nm, em 480 nm, IRBP 0.65 μM) | Kd (full-length Xenopus IRBP; all-trans retinol fluorescence enhancement, ex 330 nm, em 480 nm, IRBP 0.65 μM, read-out: Kd, Enhancement) [nM] | Binding sites (N), energy transfer (full-length Xenopus IRBP; all-trans retinol, energy transfer, ex 280 nm, em 480 nm) | Kd (full-length Xenopus IRBP; all-trans retinol, energy transfer, ex 280 nm, em 480 nm, read-out: Kd, energy transfer) [nM] | Binding sites (N), Quenching (full-length Xenopus IRBP; quenching of protein fluorescence by all-trans retinol, ex 280 nm, em 340 nm) | Kd (full-length Xenopus IRBP; quenching of protein fluorescence by all-trans retinol, ex 280 nm, em 340 nm, read-out: Kd, Quenching) [nM] | Kd (full-length Xenopus IRBP; summary statement of the abstract, read-out: Kd (summary)) [nM]
1 | CC1=C(/C=C/C(C)=C/C=C/C(C)=C/C=O)C(C)(C)CCC1 [11-cis retinal] | 570 ± 110 | 1.29 ± 0.24 | 1.81 ± 0.15 | 280 ± 50 |  |  |  |  |  |  |  | 
2 | CC1=C(/C=C/C(C)=C/C=C/C(C)=C/CO)C(C)(C)CCC1 [all-trans retinol] |  |  |  |  | 670 ± 170 | 3.19 ± 0.10 | 300 ± 50 | 3.72 ± 0.20 | 290 ± 120 | 1.93 ± 0.41 | 660 ± 140 | 200 to 300
